The results in this text go back to ChEMBL document CHEMBL4811285, “Effects of N-terminus modified Hx-amides on DNA binding affinity, sequence specificity, cellular uptake, and gene expression” (Bioorg Med Chem Lett, 2021).

The test system of series [1] is TOP2A promoter. Nature of the series: Binding affinity to 5'-AACGTT-3' DNA (unknown origin) at 1 uM by DNase1 footprinting based Autoradiogram analysis. It counts as nucleic-acid assay.
For series [2], the system named is TOP2A promoter. Nature of the series: Binding affinity to 5'-AACGTT-3' DNA (unknown origin) at 0.5 uM by DNase1 footprinting based Autoradiogram analysis. It counts as nucleic-acid assay.
Series [3] in a line: Drug uptake in mouse NIH3T3 cells assessed as fluorescence in mitochondria upto 20 uM incubated for 24 hrs under dark condition by mito-tracker red dye based confocal microscopic analysis. Conditions: nih3t3, 24 h. It counts as ADME.
The nature of series [4]: Induction of TOP2A mRNA expression in human A549 cells assessed as fold increase in mRNA expression at 2 uM incubated for 18 hrs by real time PCR analysis. It counts as cell-based.
A short description of series [5]: Drug uptake in mouse NIH3T3 cells assessed as increase in fluorescence intensity at 1 uM after 24 hr by confocal microscopic analysis relative to control. It counts as ADME, cell-based. Particulars: nih3t3, 24 h.
The nature of series [6]: Drug uptake in mouse NIH3T3 cells assessed as increase in fluorescence intensity at 10 uM after 24 hr by confocal microscopic analysis relative to control. It counts as ADME, cell-based. Particulars: nih3t3, 24 h.
Series [7] is described as follows: Drug uptake in mouse NIH3T3 cells assessed as increase in fluorescence intensity at 20 uM after 24 hr by confocal microscopic analysis relative to control. It counts as ADME, cell-based. Particulars: nih3t3, 24 h.
For series [8], the system named is TOP2A promoter. Nature of the series: Inhibition of 5'-TACGAT-3 (unknown origin) binding to 32P-radiolabeled DNA ICB2 -binding site (unknown origin) assessed as disruption NF-Y/ICB2 interaction using NIH3T3 cell nuclear protein extract incubated for 1 hr by electrophoretic mobility shift assay. In general terms: Mobility shift assays separate free from complexed probe on a gel.

Series [9] relates to TOP2A promoter. Put plainly: Binding affinity to 5'-AACGTT-3' DNA (unknown origin) at 3 uM by DNase1 footprinting based Autoradiogram analysis. It counts as nucleic-acid assay.
Series [10] has as its system DNA. Nature of the series: Binding affinity to DNA at 5'-AAGCTT-3' site (unknown origin) assessed as protection of the site from enzyme digestion at 5 uM by DNase1 footprinting based autoradiogram analysis. It counts as nucleic-acid assay.
Series [11] has as its system DNA. Nature of the series: Binding affinity to DNA at 5'-ACGGGT-3' site (unknown origin) assessed as protection of the site from enzyme digestion at 5 uM by DNase1 footprinting based autoradiogram analysis. It counts as nucleic-acid assay.
In series [12] the test system is DNA. Put plainly: Binding affinity to DNA at 5'-ACGCGT-3' (unknown origin) upto 25 uM by DNase1 footprinting based autoradiogram analysis. It counts as nucleic-acid assay. Particulars: dose microM <=25.
Series [13] has as its system DNA. Nature of the series: Binding affinity to DNA at 5'-ACCGGT-3' (unknown origin) upto 25 uM by DNase1 footprinting based autoradiogram analysis. It counts as nucleic-acid assay. Particulars: dose microM <=25.
The subject of series [14] is DNA. Put plainly: Binding affinity to DNA at 5'-AAATTT-3' (unknown origin) upto 25 uM by DNase1 footprinting based autoradiogram analysis. It counts as nucleic-acid assay. Particulars: dose microM <=25.
Series [15] has as its system DNA. Put plainly: Binding affinity to DNA at 5'-ACTAGT-3' (unknown origin) upto 25 uM by DNase1 footprinting based autoradiogram analysis. It counts as nucleic-acid assay. Conditions: dose microM <=25.
Series [16] concerns DNA. Nature of the series: Binding affinity to DNA at 5'-AAGCTT-3' (unknown origin) upto 25 uM by DNase1 footprinting based autoradiogram analysis. It counts as nucleic-acid assay. Particulars: dose microM <=25.
In series [17] the test system is DNA. Nature of the series: Binding affinity to DNA at 5'-ACGGGT-3' (unknown origin) upto 25 uM by DNase1 footprinting based autoradiogram analysis. It counts as nucleic-acid assay. Particulars: dose microM <=25.
The test system of series [18] is TOP2A promoter. Put plainly: Binding affinity to 5'-AACGTT-3' DNA (unknown origin) at 10 uM by DNase1 footprinting based Autoradiogram analysis. It counts as nucleic-acid assay.
The test system of series [19] is TOP2A promoter. Nature of the series: Inhibition of 5'-TACGAT-3 (unknown origin) binding to 32P-radiolabeled DNA ICB2 -binding site (unknown origin) assessed as disruption NF-Y/ICB2 interaction using NIH3T3 cell nuclear protein extract at >= 3 uM incubated for 1 hr by electrophoretic mobility shift assay. Conditions: dose microM >=3, time 1.0 hrs.
For series [20], the system named is TOP2A promoter. Put plainly: Binding affinity to 5'-AACGTT-3' DNA promoter TOP2A (unknown origin) at 3 uM by DNase1 footprinting based Autoradiogram analysis. It counts as nucleic-acid assay.
A short description of series [21]: Drug uptake in mouse NIH3T3 cells assessed as fluorescence in nucleus upto 20 uM incubated for 24 hrs under dark condition by mito-tracker dye based confocal microscopic analysis. It counts as ADME, cell-based. Particulars: nih3t3, 24 h.
Series [22] has as its system TOP2A promoter. Nature of the series: Inhibition of 5'-TACGAT-3 (unknown origin) binding to 32P-radiolabeled DNA ICB2 -binding site (unknown origin) assessed as disruption NF-Y/ICB2 interaction using NIH3T3 cell nuclear protein extract at >= 1 uM incubated for 1 hr by electrophoretic mobility shift assay. Conditions: dose microM >=1, time 1.0 hrs.

Calls of active or inactive are those of the source. The calls are words filed in the database; no cut-off is given here.

Take `CN(C)CCCNC(=O)c1cc(NC(=O)c2nc(NC(=O)c3ccc4nc(-c5ccncc5)[nH]c4c3)cn2C)cn1C`: the result in the series with TOP2A promoter [1] and in the series with TOP2A promoter [2] was Active. In addition, the Drug uptake entry in series [3] is recorded as “Active”. For the same molecule, in series [4] (human, a549, 18 h, 2 µM), the Activity result is given as “Not Active”. For the same molecule, the Flu intensity in series [5] is listed as 1.29; in series [6] it was 1.49; in series [7], 1.6. In addition, in the series with TOP2A promoter [8], the inhibition entry is “Dose-Dependent Effect”.

With `COc1ccc(-c2nc3ccc(C(=O)Nc4cn(C)c(C(=O)Nc5cc(C(=O)NCCCN(C)C)n(C)c5)n4)cc3[nH]2)cc1`, the outcome with TOP2A promoter [9], with DNA [10] and in the series on DNA [11] was Active. Further, the results for the Flu intensity in series [5], in series [6] and in series [7] were 2.75, 13.96 and 32.03, respectively. Also, the outcome in the series on DNA [12], with DNA [13], with DNA [14], in the series on DNA [15], in the series on DNA [16] and in the series with DNA [17] was inactive. Besides, the result in the series with TOP2A promoter [18] was inactive.

Consider `COc1ccc(-c2nc3ccc(C(=O)Nc4cn(C)c(C(=O)Nc5cc(C(=O)NCCCN(C)C)n(C)c5)n4)cc3[nH]2)cn1`, for which the inhibition entry with TOP2A promoter [19] was “Active”.

Turning to `CN(C)CCCNC(=O)c1cc(NC(=O)c2nc(NC(=O)c3ccc4nc(-c5ccco5)[nH]c4c3)cn2C)cn1C`, the inhibition entry in the series with TOP2A promoter [19] was “Active”.

On to `CN(C)CCCNC(=O)c1cc(NC(=O)c2nc(NC(=O)c3ccc4nc(-c5ccc(F)cc5)[nH]c4c3)cn2C)cn1C`, for which the result in the series on TOP2A promoter [9] and with TOP2A promoter [20] was Active. The Drug uptake result in [21] is “Active”. The fold induction at 2 µM in [4] (Homo sapiens, A549, read-out: FC) came out at 1.7. Also, the values for the Flu intensity in [5], in [6] and in [7] were 1.12, 6.08 and 15.01, respectively. In addition, in the series with TOP2A promoter [22], the inhibition entry is “Active”.

Regarding `CN(C)CCCNC(=O)c1cc(NC(=O)c2nc(NC(=O)c3ccc4nc(-c5cc6ccccc6o5)[nH]c4c3)cn2C)cn1C`, the inhibition entry in the series on TOP2A promoter [19] is “Active”.
